# Values quoted from earlier work as cited in patent US20050164162A1, “Methods for multiple parameters screening and evolution of cells to produce small molecules with multiple functionalities” (EVOLVA LTD., C/O DR. IUR. MARTIN EISENRING, priority 2002, published 2005).
# Columns and labels:
# [1] = co-administration of retinoids (LG100268)+TZDs; clinical studies
# colorectal cancer = conditions: persons who regularly use Aspirin and other NSAIDs; population-based studies
Compound,increases insulin sensitivity and glucose uptake [1] [%],decrease in relative risk for colorectal cancer (colorectal cancer)
Cc1cc2c(cc1C1(c3ccc(C(=O)O)cn3)CC1)C(C)(C)CCC2(C)C [LG100268],60,
CC(=O)Oc1ccccc1C(=O)O [Aspirin],,40-50%
